Test results published in the Kinase Knowledgebase extract (Sharma et al. 2016).

Tests used:
[1] = biological target: EGFR (Human), P00533 [T790M/L858R]; details: baf3
[2] = biological target: EGFR (human), P00533 [L858R]
[3] = biological target: EGFR (Human), P00533 [T790M/L858R]
[4] = biological target: EGFR (Human), P00533 [Assessment of EGFR-Del T790M Dependent Cell Proliferation in BaF3 Cells]
EGFR (human) = EGFR (human) (UniProt P00533)
Chain of EGFR (human) (P00533 whole entry, looked up): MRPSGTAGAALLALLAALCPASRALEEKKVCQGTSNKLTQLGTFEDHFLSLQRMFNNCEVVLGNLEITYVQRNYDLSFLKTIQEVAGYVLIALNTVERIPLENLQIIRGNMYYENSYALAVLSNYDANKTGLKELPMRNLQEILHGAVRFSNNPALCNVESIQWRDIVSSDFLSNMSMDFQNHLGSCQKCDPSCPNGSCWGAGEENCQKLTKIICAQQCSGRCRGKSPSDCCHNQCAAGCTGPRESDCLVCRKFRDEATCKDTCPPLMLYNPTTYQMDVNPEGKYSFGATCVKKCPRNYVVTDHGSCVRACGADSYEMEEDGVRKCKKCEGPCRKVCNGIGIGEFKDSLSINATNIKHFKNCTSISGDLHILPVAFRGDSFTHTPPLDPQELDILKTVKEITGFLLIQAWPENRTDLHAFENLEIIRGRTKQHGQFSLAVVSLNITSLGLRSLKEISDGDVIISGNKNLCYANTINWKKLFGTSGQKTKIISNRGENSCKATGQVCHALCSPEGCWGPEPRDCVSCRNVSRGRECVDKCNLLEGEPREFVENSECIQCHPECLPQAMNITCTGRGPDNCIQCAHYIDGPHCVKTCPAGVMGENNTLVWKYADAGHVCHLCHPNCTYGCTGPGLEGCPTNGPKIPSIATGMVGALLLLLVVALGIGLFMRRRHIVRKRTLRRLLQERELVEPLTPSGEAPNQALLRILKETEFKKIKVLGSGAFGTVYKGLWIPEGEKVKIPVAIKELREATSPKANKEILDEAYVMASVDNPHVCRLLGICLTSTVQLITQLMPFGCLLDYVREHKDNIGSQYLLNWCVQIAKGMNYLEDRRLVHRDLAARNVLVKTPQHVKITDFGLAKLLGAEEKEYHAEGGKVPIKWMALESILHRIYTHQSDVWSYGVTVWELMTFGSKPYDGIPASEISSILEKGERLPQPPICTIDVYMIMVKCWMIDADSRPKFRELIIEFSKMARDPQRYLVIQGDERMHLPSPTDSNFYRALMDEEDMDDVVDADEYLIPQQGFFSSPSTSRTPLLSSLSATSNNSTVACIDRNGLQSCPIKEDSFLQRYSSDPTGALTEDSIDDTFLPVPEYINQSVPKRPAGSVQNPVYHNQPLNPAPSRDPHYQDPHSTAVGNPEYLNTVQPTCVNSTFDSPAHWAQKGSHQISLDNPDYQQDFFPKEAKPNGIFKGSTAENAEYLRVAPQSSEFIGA

Chain of EGFR (Human), P00533 [T790M/L858R] (P00533 whole entry T790M/L858R, looked up): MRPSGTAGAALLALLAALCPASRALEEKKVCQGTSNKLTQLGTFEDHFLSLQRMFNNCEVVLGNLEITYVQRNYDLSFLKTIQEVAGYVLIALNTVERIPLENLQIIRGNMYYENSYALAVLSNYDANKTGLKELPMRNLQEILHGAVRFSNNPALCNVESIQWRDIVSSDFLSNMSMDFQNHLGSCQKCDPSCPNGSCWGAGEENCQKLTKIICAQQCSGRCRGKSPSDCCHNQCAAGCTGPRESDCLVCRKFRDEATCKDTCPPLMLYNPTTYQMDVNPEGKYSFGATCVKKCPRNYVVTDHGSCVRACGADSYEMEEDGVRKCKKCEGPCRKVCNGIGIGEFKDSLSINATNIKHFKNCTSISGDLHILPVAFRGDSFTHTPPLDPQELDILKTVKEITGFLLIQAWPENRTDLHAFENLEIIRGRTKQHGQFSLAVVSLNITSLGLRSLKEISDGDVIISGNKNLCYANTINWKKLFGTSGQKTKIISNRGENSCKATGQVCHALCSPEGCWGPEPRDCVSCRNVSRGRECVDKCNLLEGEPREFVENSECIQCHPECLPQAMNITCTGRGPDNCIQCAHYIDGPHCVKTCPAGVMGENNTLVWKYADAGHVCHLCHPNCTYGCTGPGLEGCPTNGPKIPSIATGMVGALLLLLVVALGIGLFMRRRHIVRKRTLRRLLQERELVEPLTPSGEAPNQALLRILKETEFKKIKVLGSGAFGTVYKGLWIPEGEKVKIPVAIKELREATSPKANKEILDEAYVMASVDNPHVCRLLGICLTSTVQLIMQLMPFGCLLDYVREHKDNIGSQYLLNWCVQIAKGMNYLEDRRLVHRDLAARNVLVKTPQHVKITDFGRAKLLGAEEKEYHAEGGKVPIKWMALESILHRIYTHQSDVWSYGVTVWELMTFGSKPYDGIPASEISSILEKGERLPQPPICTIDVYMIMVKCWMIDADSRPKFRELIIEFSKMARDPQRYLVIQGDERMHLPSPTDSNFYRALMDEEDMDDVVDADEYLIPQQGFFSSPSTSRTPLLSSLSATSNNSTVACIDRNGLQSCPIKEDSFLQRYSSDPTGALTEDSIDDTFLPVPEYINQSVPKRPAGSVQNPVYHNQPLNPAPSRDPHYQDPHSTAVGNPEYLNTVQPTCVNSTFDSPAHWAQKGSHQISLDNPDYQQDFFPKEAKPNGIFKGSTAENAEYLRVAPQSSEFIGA
Chain of EGFR (human), P00533 [L858R] (P00533 whole entry L858R, looked up): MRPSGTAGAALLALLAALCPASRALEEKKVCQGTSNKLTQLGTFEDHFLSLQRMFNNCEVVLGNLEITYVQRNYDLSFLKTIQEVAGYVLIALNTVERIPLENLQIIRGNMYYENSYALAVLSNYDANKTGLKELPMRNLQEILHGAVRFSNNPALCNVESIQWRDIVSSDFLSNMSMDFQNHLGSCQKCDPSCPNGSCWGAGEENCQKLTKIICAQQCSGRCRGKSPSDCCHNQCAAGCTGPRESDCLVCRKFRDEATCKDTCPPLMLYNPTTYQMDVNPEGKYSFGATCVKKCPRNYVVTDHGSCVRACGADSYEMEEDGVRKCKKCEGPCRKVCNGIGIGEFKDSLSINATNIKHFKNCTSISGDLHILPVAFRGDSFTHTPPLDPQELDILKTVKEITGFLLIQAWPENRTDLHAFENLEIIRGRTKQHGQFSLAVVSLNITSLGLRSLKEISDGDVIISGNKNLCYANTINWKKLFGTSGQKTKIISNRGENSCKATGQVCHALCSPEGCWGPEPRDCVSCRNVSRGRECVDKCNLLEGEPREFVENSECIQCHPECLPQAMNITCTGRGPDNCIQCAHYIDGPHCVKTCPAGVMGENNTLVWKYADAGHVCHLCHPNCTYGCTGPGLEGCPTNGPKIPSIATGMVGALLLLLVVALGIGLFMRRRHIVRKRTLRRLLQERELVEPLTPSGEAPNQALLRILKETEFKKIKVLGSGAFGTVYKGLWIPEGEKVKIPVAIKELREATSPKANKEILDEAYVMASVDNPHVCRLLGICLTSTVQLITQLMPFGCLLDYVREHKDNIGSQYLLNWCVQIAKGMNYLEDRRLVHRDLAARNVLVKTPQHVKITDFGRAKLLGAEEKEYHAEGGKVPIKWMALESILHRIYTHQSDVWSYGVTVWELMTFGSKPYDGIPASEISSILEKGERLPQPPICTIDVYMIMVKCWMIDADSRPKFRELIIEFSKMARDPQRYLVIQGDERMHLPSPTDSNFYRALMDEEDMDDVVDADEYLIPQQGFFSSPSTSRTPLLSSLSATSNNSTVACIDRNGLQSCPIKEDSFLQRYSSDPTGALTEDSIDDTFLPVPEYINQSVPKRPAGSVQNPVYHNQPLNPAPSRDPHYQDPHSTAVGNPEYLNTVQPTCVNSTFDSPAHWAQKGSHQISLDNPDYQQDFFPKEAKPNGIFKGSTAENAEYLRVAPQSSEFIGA
Chain of EGFR (Human), P00533 [Assessment of EGFR-Del T790M Dependent Cell Proliferation in BaF3 Cells] (P00533 whole entry, looked up, stated change not applied): as the sequence (P00533 whole entry, looked up) above

Compound	IC50 [1]	IC50 [2]	IC50 [3]	IC50 [4]	IC50 (EGFR (human))
C=CC(=O)Nc1cc(Nc2ncc(Cl)c(Nc3ccccc3P(C)(C)=O)n2)c(OC)cc1C#CCN(C)C(C)C	< 50 nM	< 50 nM	< 50 nM	< 50 nM	< 50 nM
C=CC(=O)Nc1cc(Nc2ncc(Cl)c(Nc3ccccc3P(C)(C)=O)n2)c(OC)cc1CN1CCN(C)CC1	50 to 100 nM	< 50 nM	< 50 nM	< 50 nM	< 50 nM
CCOC(=O)/C=C/C(=O)Nc1ccc(OC)c(Nc2ncc(Cl)c(Nc3ccccc3P(C)(C)=O)n2)c1	< 50 nM	< 50 nM	< 50 nM	< 50 nM	< 50 nM
COc1ccc(NC(=O)C#CC(C)(C)N2CCCC2)cc1Nc1ncc(Cl)c(Nc2ccccc2P(C)(C)=O)n1	< 50 nM	< 50 nM	< 50 nM	< 50 nM	< 50 nM
C=CC(=O)Nc1cc(Nc2ncc(Cl)c(Nc3ccccc3P(C)(C)=O)n2)c(OC)cc1OCC1CCCCN1C (stereo not given)	< 50 nM	< 50 nM	< 50 nM	< 50 nM	< 50 nM
C=CC(=O)Nc1cc(Nc2ncc(Cl)c(Nc3ccccc3P(C)(C)=O)n2)c(OC)cc1OC(COC)CN1CCC1 (stereo not given)	< 50 nM	< 50 nM	< 50 nM	< 50 nM	< 50 nM
C=CC(=O)Nc1cc(Nc2ncc(Cl)c(Nc3ccccc3P(C)(C)=O)n2)c(OC)cc1C#CC(C)(C)N(CC)CC	< 50 nM	< 50 nM	< 50 nM	< 50 nM	< 50 nM
C=CC(=O)Nc1cc(Nc2ncc(Cl)c(Nc3ccccc3P(C)(C)=O)n2)c(OC)cc1C#CCN(C)C1CCCC1	< 50 nM	< 50 nM	< 50 nM	< 50 nM	< 50 nM
C=C(CN1CCC(N2CCN(C)CC2)CC1)C(=O)Nc1ccc(OC)c(Nc2ncc(Cl)c(Nc3ccccc3P(C)(C)=O)n2)c1	< 50 nM	< 50 nM	< 50 nM	< 50 nM	< 50 nM
C=CC(=O)Nc1cc(Nc2ncc(Cl)c(Nc3ccccc3P(C)(C)=O)n2)c(OC)cc1C#CCN(C)C	< 50 nM	< 50 nM	< 50 nM	< 50 nM	< 50 nM
COc1cc(N2CCOCC2)c(NC(=O)C#CCCN(C)C)cc1Nc1ncc(Cl)c(Nc2ccccc2P(C)(C)=O)n1	< 50 nM	< 50 nM	< 50 nM	< 50 nM	< 50 nM
C=CC(=O)Nc1cc(Nc2ncc(Cl)c(Nc3ccccc3P(C)(C)=O)n2)c(OC)cc1N1CCC(N2CCCCC2)CC1	< 50 nM	< 50 nM	< 50 nM	< 50 nM	< 50 nM
C=CC(=O)Nc1cc(Nc2ncc(Cl)c(Nc3ccccc3P(C)(C)=O)n2)c(OC)cc1C#CCCN(C)C	< 50 nM	< 50 nM	< 50 nM	< 50 nM	< 50 nM
C=C(Cl)C(=O)Nc1ccc(OC)c(Nc2ncc(Cl)c(Nc3ccccc3P(C)(C)=O)n2)c1	101 to 250 nM	< 50 nM	< 50 nM	< 50 nM	< 50 nM
C=C(CN1CCCCC1)C(=O)Nc1ccc(OC)c(Nc2ncc(Cl)c(Nc3ccccc3P(C)(C)=O)n2)c1	< 50 nM	< 50 nM	< 50 nM	< 50 nM	< 50 nM
C=C(CN1CCOCC1)C(=O)Nc1ccc(OC)c(Nc2ncc(Cl)c(Nc3ccccc3P(C)(C)=O)n2)c1	< 50 nM	< 50 nM	< 50 nM	< 50 nM	< 50 nM
C=C(CN1CCN(CCO)CC1)C(=O)Nc1ccc(OC)c(Nc2ncc(Cl)c(Nc3ccccc3P(C)(C)=O)n2)c1	< 50 nM	< 50 nM	< 50 nM	< 50 nM	< 50 nM

Compound	IC50 [1]	IC50 [2]	IC50 [3]	IC50 [4]	IC50 (EGFR (human))
C=C(CN1CCN(S(C)(=O)=O)CC1)C(=O)Nc1ccc(OC)c(Nc2ncc(Cl)c(Nc3ccccc3P(C)(C)=O)n2)c1	< 50 nM	< 50 nM	< 50 nM	< 50 nM	< 50 nM
C=CC(=O)Nc1cc(Nc2ncc(Cl)c(Nc3ccccc3P(C)(C)=O)n2)c(OC)cc1C#CC(C)(C)N	< 50 nM	< 50 nM	< 50 nM	< 50 nM	< 50 nM
COc1cc(C)c(NC(=O)CCl)cc1Nc1ncc(Cl)c(Nc2ccccc2P(C)(C)=O)n1	< 50 nM	< 50 nM	< 50 nM	< 50 nM	< 50 nM
C=CC(=O)Nc1cc(Nc2ncc(Cl)c(Nc3ccccc3S(=O)(=O)C(C)C)n2)c(OC)cc1C#CCN(C)C	< 50 nM	< 50 nM	< 50 nM	< 50 nM	< 50 nM
C=C(CN1CCN(C(C)C)CC1)C(=O)Nc1ccc(OC)c(Nc2ncc(Cl)c(Nc3ccccc3P(C)(C)=O)n2)c1	< 50 nM	< 50 nM	< 50 nM	< 50 nM	50 to 100 nM
C=CC(=O)Nc1ccc(OC)c(Nc2ncc(Cl)c(Nc3ccc(OCCOC)cc3P(C)(C)=O)n2)c1	50 to 100 nM	< 50 nM	< 50 nM	< 50 nM	50 to 100 nM
C=CC(=O)Nc1cc(Nc2ncc(Cl)c(Nc3ccccc3P(C)(C)=O)n2)c(OC)cc1C#CCN(C)CCOC	< 50 nM	< 50 nM	< 50 nM	< 50 nM	< 50 nM
COc1cc(F)c(NC(=O)C#CCN(C)C)cc1Nc1ncc(Cl)c(Nc2ccccc2P(C)(C)=O)n1	< 50 nM	< 50 nM	< 50 nM	< 50 nM	< 50 nM
C=CC(=O)Nc1cc(Nc2ncc(Cl)c(Nc3ccccc3P(C)(C)=O)n2)c(OC)cc1C#CCN(C(C)C)C(C)C	< 50 nM	< 50 nM	< 50 nM	< 50 nM	< 50 nM
C=CC(=O)Nc1cc(Nc2ncc(Cl)c(Nc3ccccc3P(C)(C)=O)n2)c(OC)cc1OC(COC)CN(C)C (stereo not given)	< 50 nM	< 50 nM	< 50 nM	< 50 nM	< 50 nM
C=CC(=O)Nc1cc(Nc2ncc(Cl)c(Nc3ccccc3P(C)(C)=O)n2)c(OC)cc1C#CCN(C)CC	< 50 nM	< 50 nM	< 50 nM	< 50 nM	< 50 nM
C=CC(=O)Nc1cc(Nc2ncc(Cl)c(Nc3ccccc3P(C)(C)=O)n2)c(OC)cc1N1CCC(N(CC)CC)C1 (stereo not given)	< 50 nM	< 50 nM	< 50 nM	< 50 nM	< 50 nM
C=CC(=O)Nc1cc(Nc2ncc(Cl)c(Nc3ccccc3P(C)(C)=O)n2)c(OC)cc1N1CCC(N(C)C)C1 (stereo not given)	< 50 nM	< 50 nM	< 50 nM	< 50 nM	< 50 nM
CC#CC(=O)Nc1cc(Nc2ncc(Cl)c(Nc3ccccc3P(C)(C)=O)n2)c(OC)cc1N1CCC(N2CCN(C)CC2)CC1	< 50 nM	< 50 nM	< 50 nM	< 50 nM	50 to 100 nM
COc1cc(N2CCOCC2)c(NC(=O)C#CCCN2CCN(C)CC2)cc1Nc1ncc(Cl)c(Nc2ccccc2P(C)(C)=O)n1	< 50 nM	< 50 nM	< 50 nM	< 50 nM	< 50 nM
C=CC(=O)Nc1cc(Nc2ncc(Cl)c(Nc3ccccc3P(C)(C)=O)n2)c(C)cc1C#CCN(C)C	< 50 nM	< 50 nM	< 50 nM	< 50 nM	< 50 nM
